In patent US20250082630A1, “METHODS OF TREATING BRAIN TUMOURS AND NEUROBLASTOMAS” (AstraZeneca AB, priority 2021, published 2025):

Tests used:
[1] = Determination of Kpuu in rat; format: in vivo, Han Wistar rats; conditions: Han Wistar, rat, brain and plasma (unbound brain-to-plasma ratio), 2 µmols/kg/h, intravenous infusion
Protocol: The fraction unbound was determined using the RED Device.
Compounds were prepared as 10 mM solutions in DMSO. […] If less than 9 test compounds were included then the addition volume of blank DMSO was added to make up volume to 40 uL.
Frozen plasma was thawed in a water bath at 37° C. Plasma was then centrifuged for 2 minutes at 4,000 rpm to remove clots and collect supernatant into a fresh tube. The pH of the plasma was checked and only used if within the range of pH 7 to pH 8. 3 μL of the working solution of each cassette was added to 597 μL of blank plasma and vortexed for 5 minutes at 1000 rpm. The final percent volume of organic solvent is 0.5% and the final concentration for test compound was 5 μM. Immediately transfer 50 μL of the spiked plasma suspension to a 96-well plate to act as T=0 control sample. The samples are treated the same as the samples after incubation. The remaining plasma is kept at 37° C. prior to starting the dialysis.
Place inserts open end up into the wells of the base plate. Add 300 μL of spiked plasma sample into the sample chamber, indicated by the red ring. Add 500 μL of phosphate buffer (pH 7.4) to the buffer chamber. Cover the unit with gas permeable lid and incubate for 18 hours at 37° C. at 300 rpm with 5% CO2 on an orbital shaker in the CO2 incubator. At the end of incubation, remove lid and pipette 50 μL of post-dialysis samples from both buffer and plasma chambers into separated 96-well plate for analysis, respectively.
Samples were matrix matched by adding 50 μL of blank rat plasma to the buffer samples and an equal volume of PBS to the collected plasma samples and vortexed to mix. 400 μL of acetonitrile containing an appropriate internal standard (IS) was added to precipitate protein and release compound and mixed by vortexing the plate for 10 minutes followed by centrifugation for 30 minutes at 4,000 rpm. 250 μL of the supernatant was transferred to new 96-well plates and centrifuged again (4,000 rpm, 30 minutes). 100 μL of the supernatant was then transferred to new 96-well plates and mixed with 100 μL of distilled water to each sample by vortex for 5 minutes at 1,000 rpm. Samples were analysed by LC-MS/MS and drug concentrations were determined vs a calibration curve produced from spiked blank plasma with a typical range of 1-7500 nM.
The % unbound was determined as % Unbound=(Conc. buffer chamber/Conc. plasma chamber)×100%. Fraction unbound=% unbound/100.
The principle for the method for the determination of volume unbound in brain slices has previously been published (Development of a High-Throughput Brain Slice Method for Studying Drug Distribution in the Central Nervous System; Fridén et al; Drug Metabolism and Disposition, 2009, 37 (6) 1226-1233). In brief:
Compound stock solutions were prepared in DMSO at the concentration of 10 mM. […] If less than 9 test compounds were included, then blank DMSO was added to make up volume to 40 uL. On the day of the experiment 4 ul was diluted in 40 mL ECF buffer to give a 100 nM solution of each test compounds which was then pre-warmed to 37° C. before the start of the incubation.
To prepare brain slices, rats weighing approximately 300 g were terminally anesthetised with isoflurane by inhalation, the brain carefully removed and immersed in ice-cold oxygenated ECF buffer. The rat brain was transferred to a dish containing ice-cold, 02 supplied ECF buffer and trimmed with razor before gluing to the tray of a microslicer with the brain placed with the back section surface down centrally on the tray. Ice cold ECF buffer was added to harden the glue and wet the brain. The tray was placed in the microslicer and using a suitable cutting speed, 100-400 μm were cut slices until the striatum area appeared. Four to six for each brain, 300 μm thick, coronal slices of striatum areas were cut and placed in ice cold 02 supplied buffer until incubation. Six slices were transferred to the incubation tray containing 40 mL pre warmed (37° C.) cassette mixture. […]

[2] = tested on: U87MG xenograft; format: in vivo, female Nude mice; conditions: Compound 20 3 mg/kg QD in combination with TMZ 6.25 mg/kg QD on days 1-5 and 29-33, PO
Protocol: U87MG cells (2.5 million in serum-free MEM medium) were implanted subcutaneously (SC) into the dorsal flank of female Nude mice (weight greater than 18 g). Tumours were measured (length x width) two times weekly by bilateral Vernier calliper measurements and tumour volume was calculated using elliptical formula (π/6×width×width×length). Animal bodyweight and tumour condition were monitored throughout the study. Mice were randomised into treatment groups when mean tumour volume reached approximately 0.2 cm^3.
Animals were treated orally (PO) from the day after the randomisation. Control animals were treated with vehicle (water/methane sulfonic acid (MSA) pH3-3.2) once daily for 10 days (QD×10). PARP inhibitor in water/MSA pH3-3.2 was dosed in the monotherapy and combination groups at 3 mg/kg QD×10 or QD×33, respectively. Temozolomide (TMZ) in OraPlus Perrigo was dosed in the monotherapy group at 25 mg/kg QD on days 1-5 and 29-33, and in monotherapy and combination group at 6.25 mg/kg QD on days 1-5 and 29-33.
Tumour growth inhibition from start of treatment was assessed by comparison of the mean change in tumour volume (TV) of the control and treated groups and represented as percent tumour growth inhibition (TGI, when tumour volume (TV) >starting TV) or tumour regression (reg, when TV<starting TV). Statistical significance was evaluated using a one-tailed t test. Statistical significance is indicated as follows: *p:0.05, **p:0.01, ***p:0.001.

CNC(=O)c1ccc(N2CCN(Cc3ccc4nc(C)c(=O)[nH]c4c3F)CC2)c(F)n1 [Example 20, 6-fluoro-5-[4-[(5-fluoro-2-methyl-3-oxo-4H-quinoxalin-6-yl)methyl]piperazin-1-yl]-N-methyl-pyridine-2-carboxamide]
Kp uu at 4 h [1]: 0.27
tumour regression [2]: 95%
tumours regressed [2]: 8/8
